How the values were obtained:
KRas^G12V = molecular target: T1, KRas^G12V (Homo sapiens, UniProt P01116, G12V); assay: KRas binding assay (TR-FRET tracer displacement), KRas G12V
T1 construct: Biotinylated KRas (corresponding to amino acids 1-169, produced at Accelegan Inc.); biotin (biotinylated); purchased Accelegan Inc

KRas^G12D = molecular target: T2, KRas^G12D (Homo sapiens, UniProt P01116, G12D); assay: KRas binding assay (TR-FRET tracer displacement), KRas G12D
T2 construct: Biotinylated KRas (corresponding to amino acids 1-169, produced at Accelegan Inc.); biotin (biotinylated); purchased Accelegan Inc

[1] = tested on: KRas-mediated phosphorylation of ERK in AsPC-1 cells; assay: Inhibition of KRas-mediated phosphorylation of ERK (Cisbio HTRF pERK), AsPC-1 cells; assay type: cell-based; settings: Homo sapiens, ASPC1, AsPC-1 cells; HTRF pERK
Procedure: (§1) Inhibition of KRas Phosphorylation of ERK (HTRF) by Exemplary Compounds of Formula (I) Cisbio HTRF Advanced PERK Assay Catalog #64[…] […] Add 10 mL of media to stop trypsinizing. Pipette the cells into a conical bottom 50 mL centrifuge tube and centrifuge 5 min×1000 rpm. […] Re-suspend the cell pellet in media, take a cell count, and then adjust the cell density using fresh media. […] Seed 6,000 cells into cell culture plate with 50 μL media. […] Use Tecan to complete the compound addition. Compounds start from 10 uM top, 3-fold dilution, and 10 doses. The final DMSO concentration is 0.8%. Dispensed 0.2 uM Trametinib as Min control. […] Incubate cell plate for 3 hrs in the incubator. […] Dilute 1 volume of 4× lysis buffer with 3 volumes of deionized water. […] Keep lysis buffer on the ice. […] At the end of the compound treatment, flick-off the media. […] Add 35 μL of lysis buffer per well using a Multidrop Combi. Then place on a plate agitator shaking at 300 rpm at 4° C. for 40 mins. […] Make up the HTRF antibody buffer. For each assay plate, mix 50 μL of d2-conjugate antibody with 950 μL of detection buffer. Similarly, mix 50 μL of Cryptate antibody with 950 μL of detection buffer. Then mix the two diluted antibodies together. […] Dispense 3.4 μL the antibody buffer to wells of an empty assay plate. Seal the plate and centrifuge plate 30 sec×1000 rpm. […] At the end of the 4° C. lysis, centrifuge the lysate plates 3 mins×1500 rpm. […] Use the Bravo to transfer 13.6 μL of lysate from cell culture plate to assay plate. Then incubate assay plate for 2 hrs at room temperature. 8. At the end of incubation, read plate on the Envision after centrifuging plate 30 sec×1000 rpm.

[2] = tested on: KRas-mediated phosphorylation of ERK in H727 cells; assay: Inhibition of KRas-mediated phosphorylation of ERK (Cisbio HTRF pERK), H727 cells; assay type: cell-based; settings: Homo sapiens, NCI-H727, H727 cells; HTRF pERK
Procedure: as §1

KRas^G12R = molecular target: T3, KRas^G12R (Homo sapiens, UniProt P01116, G12R); assay: KRas binding assay (TR-FRET tracer displacement), KRas G12R
T3 construct: Biotinylated KRas (corresponding to amino acids 1-169, produced at Accelegan Inc.); biotin (biotinylated); purchased Accelegan Inc
T3 sequence (P01116 1-169 isoform P01116-2 G12R): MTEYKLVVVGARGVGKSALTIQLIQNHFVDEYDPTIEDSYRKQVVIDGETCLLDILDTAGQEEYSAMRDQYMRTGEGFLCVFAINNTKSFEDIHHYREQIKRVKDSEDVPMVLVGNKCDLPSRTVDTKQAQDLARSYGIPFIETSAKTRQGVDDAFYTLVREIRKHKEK

T2 sequence (P01116 1-169 isoform P01116-2 G12D): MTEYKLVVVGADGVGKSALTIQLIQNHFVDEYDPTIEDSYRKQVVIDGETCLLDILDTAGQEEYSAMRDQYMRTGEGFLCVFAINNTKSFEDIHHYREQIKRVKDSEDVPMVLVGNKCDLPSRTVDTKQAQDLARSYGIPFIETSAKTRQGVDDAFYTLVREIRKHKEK
T1 sequence (P01116 1-169 isoform P01116-2 G12V): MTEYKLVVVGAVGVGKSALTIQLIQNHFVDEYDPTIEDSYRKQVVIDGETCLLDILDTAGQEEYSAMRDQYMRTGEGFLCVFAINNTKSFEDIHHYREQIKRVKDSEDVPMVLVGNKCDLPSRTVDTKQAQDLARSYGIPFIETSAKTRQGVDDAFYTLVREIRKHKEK

Row | IC50 (KRas^G12V) [nM] | IC50 (KRas^G12D) [nM] | IC50 [1] [nM] | IC50 [2] [nM] | IC50 (KRas^G12R) [nM] | Structure (SMILES)
1 | > 100000 | > 100000 | > 10000 | > 10000 | 67700 | O=C1CC2CN(c3nc(OCC45CCCN4CCC5)nc4c(F)c(-c5cccc6cccc(F)c56)ncc34)CCC2C(=O)N1 (stereo not shown) [Example 526, 6-(8-fluoro-7-(8-fluoronaphthalen-1-yl)-2-((hexahydro-1H-pyrrolizin-7a-yl)methoxy)pyrido[4,3-d]pyrimidin-4-yl)hexahydro-2,6-naphthyridine-1,3(2H,4H)-dione]
2 | 150 | 116 | > 10000 | > 10000 | 193 | CCc1c(F)ccc2cc(O)cc(-c3ncc4c(N5CCC[C@@](C)(O)C5)nc(N5CC(N)C5)nc4c3F)c12 [Example 527, (R)-1-(2-(3-aminoazetidin-1-yl)-7-(8-ethyl-7-fluoro-3-hydroxynaphthalen-1-yl)-8-fluoropyrido[4,3-d]pyrimidin-4-yl)-3-methylpiperidin-3-ol]
3 | 3 | 8 | > 10000 | > 10000 | 3 | CCc1c(F)ccc2cc(O)cc(-c3ncc4c(N5CCCC6(C5)NC(=O)NC6=O)nc(N5CC(N)C5)nc4c3F)c12 (stereo not shown) [Example 528, 7-(2-(3-aminoazetidin-1-yl)-7-(8-ethyl-7-fluoro-3-hydroxynaphthalen-1-yl)-8-fluoropyrido[4,3-d]pyrimidin-4-yl)-1,3,7-triazaspiro[4.5]decane-2,4-dione]
4 | 21 | 14 | > 10000 | > 10000 | 36 | CCc1c(F)ccc2cc(O)cc(-c3ncc4c(N5CCCn6nc(C(=O)N(C)C)cc6C5)nc(N5CC(N)C5)nc4c3F)c12 [Example 529, 5-(2-(3-aminoazetidin-1-yl)-7-(8-ethyl-7-fluoro-3-hydroxynaphthalen-1-yl)-8-fluoropyrido[4,3-d]pyrimidin-4-yl)-N,N-dimethyl-5,6,7,8-tetrahydro-4H-pyrazolo[1,5-a][1,4]diazepine-2-carboxamide]
5 | < 2 | 5 | > 10000 | > 10000 | < 2 | CCc1c(F)ccc2cc(O)cc(-c3ncc4c(N5CCCC6(C5)NC(=O)NC6=O)nc(N5CC(C)(N)C5)nc4c3F)c12 (stereo not shown) [Example 531, 7-(2-(3-amino-3-methylazetidin-1-yl)-7-(8-ethyl-7-fluoro-3-hydroxynaphthalen-1-yl)-8-fluoropyrido[4,3-d]pyrimidin-4-yl)-1,3,7-triazaspiro[4.5]decane-2,4-dione]
6 | 15 | 9 | > 10000 | > 10000 | 24 | CCc1c(F)ccc2cc(O)cc(-c3ncc4c(N5CCCn6nc(C(=O)N(C)C)cc6C5)nc(N5CC(C)(N)C5)nc4c3F)c12 [Example 532, 5-(2-(3-amino-3-methylazetidin-1-yl)-7-(8-ethyl-7-fluoro-3-hydroxynaphthalen-1-yl)-8-fluoropyrido[4,3-d]pyrimidin-4-yl)-N,N-dimethyl-5,6,7,8-tetrahydro-4H-pyrazolo[1,5-a][1,4]diazepine-2-carboxamide]
7 | 9 | 60 | > 10000 | 2330 | 6 | CCc1c(F)ccc2cc(O)cc(-c3ncc4c(NC5CCONC5)nc(OC[C@@]56CCCN5C[C@H](F)C6)nc4c3F)c12 (stereo partly drawn) [Example 542, 4-(4-((1,2-oxazinan-4-yl)amino)-8-fluoro-2-(((2R,7aS)-2-fluorohexahydro-1H-pyrrolizin-7a-yl)methoxy)pyrido[4,3-d]pyrimidin-7-yl)-5-ethyl-6-fluoronaphthalen-2-ol]
8 | 35 | 72 | 1830 | 1010 | 37 | CCc1c(F)ccc2cc(O)cc(-c3ncc4c(N5C[C@H]6CC[C@@]6(O)C5)nc(OC[C@@]56CCCN5C[C@H](F)C6)nc4c3F)c12 [Example 546, (1S,5R)-3-(7-(8-ethyl-7-fluoro-3-hydroxynaphthalen-1-yl)-8-fluoro-2-(((2R,7aS)-2-fluorohexahydro-1H-pyrrolizin-7a-yl)methoxy)pyrido[4,3-d]pyrimidin-4-yl)-3-azabicyclo[3.2.0]heptan-1-ol]
